Where “and” joins values, the source holds several entries; their conditions need not be identical. Identical values can stand only once. Like-named read-outs stand apart in the source and are kept apart here.
How the values were obtained:
DNA gyrase from E. coli = target: T1, DNA gyrase from E. coli (Escherichia coli, UniProt P0AES6); assay: supercoiling HTS plate assay; assay type: biochemical; conditions: IC50 [nM] E. coli DNA gyrase
T1 construct: purchased Inspiralis
In short: (§1)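 E. coli gyrase tested by supercoiling and topo IV by relaxation in high-throughput plate format. IC50 from seven inhibitor concentrations; mean of three independent measurements.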

topo IV from E. coli = target: T2, topo IV from E. coli (Escherichia coli, UniProt P20083); assay: relaxation HTS plate assay; assay type: biochemical; conditions: read-out: IC50
T2 construct: purchased Inspiralis
T2 sequence (P0AFI2 whole entry): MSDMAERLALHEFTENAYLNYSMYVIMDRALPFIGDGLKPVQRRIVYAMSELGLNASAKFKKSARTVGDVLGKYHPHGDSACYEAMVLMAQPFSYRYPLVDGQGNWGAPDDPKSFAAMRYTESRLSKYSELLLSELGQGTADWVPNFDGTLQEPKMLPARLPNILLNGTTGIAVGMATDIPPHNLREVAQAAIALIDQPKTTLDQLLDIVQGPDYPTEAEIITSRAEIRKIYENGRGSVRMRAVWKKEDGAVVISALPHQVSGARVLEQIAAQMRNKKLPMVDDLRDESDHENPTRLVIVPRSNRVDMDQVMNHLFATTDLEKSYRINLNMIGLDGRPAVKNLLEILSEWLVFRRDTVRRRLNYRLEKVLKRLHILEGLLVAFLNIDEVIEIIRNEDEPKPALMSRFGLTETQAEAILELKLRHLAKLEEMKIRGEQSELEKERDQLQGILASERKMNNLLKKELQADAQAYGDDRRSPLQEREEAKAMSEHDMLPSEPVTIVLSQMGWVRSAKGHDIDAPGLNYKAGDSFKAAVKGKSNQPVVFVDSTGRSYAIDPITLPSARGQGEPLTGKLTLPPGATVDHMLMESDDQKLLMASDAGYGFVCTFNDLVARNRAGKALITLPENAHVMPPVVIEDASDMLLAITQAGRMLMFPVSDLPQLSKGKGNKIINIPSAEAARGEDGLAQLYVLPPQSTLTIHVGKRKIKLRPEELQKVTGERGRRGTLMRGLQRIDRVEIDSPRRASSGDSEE
T2 sequence (P20083 whole entry): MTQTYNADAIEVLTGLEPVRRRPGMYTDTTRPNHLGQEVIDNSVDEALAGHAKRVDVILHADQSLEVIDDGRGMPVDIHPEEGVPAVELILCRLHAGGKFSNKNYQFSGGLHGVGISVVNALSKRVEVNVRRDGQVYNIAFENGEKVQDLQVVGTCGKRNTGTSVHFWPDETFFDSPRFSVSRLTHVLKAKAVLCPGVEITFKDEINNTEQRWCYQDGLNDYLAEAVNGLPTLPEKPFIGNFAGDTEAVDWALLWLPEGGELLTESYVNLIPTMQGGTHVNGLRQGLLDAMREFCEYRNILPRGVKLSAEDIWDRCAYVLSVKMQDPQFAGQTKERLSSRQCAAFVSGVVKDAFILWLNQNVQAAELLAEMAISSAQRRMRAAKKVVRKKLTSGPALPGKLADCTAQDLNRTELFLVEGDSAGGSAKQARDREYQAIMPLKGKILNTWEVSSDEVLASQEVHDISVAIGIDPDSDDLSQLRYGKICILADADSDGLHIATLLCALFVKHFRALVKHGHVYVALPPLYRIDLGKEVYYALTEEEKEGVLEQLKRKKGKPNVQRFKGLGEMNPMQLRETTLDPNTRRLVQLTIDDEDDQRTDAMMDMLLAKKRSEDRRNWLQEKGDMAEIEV
In short: as §1

A. baumannii ATCC 17978 = assay: MIC broth microdilution (CLSI); assay type: cell-based; conditions: Acinetobacter baumannii, ATCC17978
In short: (§2)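 Cation-adjusted Mueller Hinton broth 2 microdilution, 5 × 10^4 cells per well in 100 μL, three parallel replicates, plates bagged to limit evaporation; growth read as OD600 after incubation.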

S. aureus ATCC 29213 = assay: MIC broth microdilution (CLSI); assay type: cell-based; conditions: Staphylococcus aureus, ATCC29213
In short: as §2

[1] = system: Enterococcus faecalis ATCC 29212; assay: MIC broth microdilution (CLSI); assay type: cell-based, E. faecalis; conditions: Enterococcus faecalis, ATCC29212; read-out: MIC
E. coli ATCC 25922 = assay: MIC broth microdilution (CLSI); assay type: cell-based; conditions: Escherichia coli, ATCC25922; read-out: MIC
In short: (§3)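 Growth inhibition is scored by OD600 after 18 h at 37 °C with shaking. The MIC is taken where the average OD600 increase across three replicates is under 1.5 times the background increase. Inocula are 5 × 10^4 cells per 100 μL in cation-adjusted MHBII, following CLSI serial dilution.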

E. faecium ATCC 700221 = assay: MIC broth microdilution (CLSI); assay type: cell-based; conditions: Enterococcus faecium, ATCC700221; read-out: MIC
[2] = system: Enterobacter cloacae spp. cloacae ATCC 13047; assay: MIC broth microdilution (CLSI); assay type: cell-based; conditions: Enterobacter cloacae, ATCC13047; read-out: MIC
In short: as §3

K. pneumoniae ATCC 10031 = assay: MIC broth microdilution (CLSI); assay type: cell-based
In short: as §3

P. aeruginosa ATCC 27853 = assay: MIC broth microdilution (CLSI); assay type: cell-based; conditions: Pseudomonas aeruginosa, ATCC27853; read-out: MIC
In short: as §3

[3] = system: S. aureus (MRSA) ATCC 43300; assay: MIC broth microdilution (CLSI); assay type: cell-based; conditions: Staphylococcus aureus
In short: as §3

[4] = system: S. aureus (VISA) ATCC 700699; assay: MIC broth microdilution (CLSI); assay type: cell-based; conditions: Staphylococcus aureus; read-out: MIC
In short: as §3

[5] = read-out: MIC [µg/mL] (A. baumannii ATCC 17978)
[6] = read-out: MIC [µg/mL](S. aureus ATCC 29213)
[7] = Klebsiella pneumoniae, ATCC10031, read-out: MIC
[8] = read-out: MIC [µg/mL](S. aureus MRSA ATCC4330)

Row | SMILES | IC50 (DNA gyrase from E. coli) | IC50 (topo IV from E. coli) | MIC (A. baumannii ATCC 17978; read-out: MIC) | MIC (A. baumannii ATCC 17978; [5]) | MIC (S. aureus ATCC 29213; read-out: MIC) | MIC (S. aureus ATCC 29213; [6]) | MIC [1] | MIC (E. coli ATCC 25922) | MIC (E. faecium ATCC 700221) | MIC [2] | MIC (K. pneumoniae ATCC 10031) | MIC (K. pneumoniae ATCC 10031; [7]) | MIC (P. aeruginosa ATCC 27853) | MIC ([3]; read-out: MIC) | MIC [3, 8] | MIC [4]
1 | Cc1[nH]c(C(=O)Nc2nc3c(N4CCC(O)CC4)cc(C(=O)O)cc3s2)c(Cl)c1Cl [7p, 2-(3,4-Dichloro-5-methyl-1H-pyrrole-2-carboxamido)-4-(4-hydroxypiperidin-1-yl)benzo[d]thiazole-6-carboxylic Acid] | < 10 nM | 140 ± 3 nM | > 64 µg/mL | > 64 µg/mL | 4 µg/mL | 4 µg/mL | < 0.0312 µg/mL | > 64 µg/mL | < 0.0312 µg/mL | > 64 µg/mL | 4 µg/mL | 4 µg/mL | > 64 µg/mL | 4 µg/mL | 4 µg/mL | 0.5 µg/mL
2 | Cc1[nH]c(C(=O)Nc2nc3c(N4CCOCC4)cc(C(=O)O)cc3s2)cc1Cl [16a, 2-(4-Chloro-5-methyl-1H-pyrrole-2-carboxamido)-4-morpholinobenzo[d]thiazole-6-carboxylic Acid] | 13 ± 5 nM | < 100 nM and 38 nM | > 64 µg/mL | > 64 µg/mL | 8 µg/mL | 8 µg/mL | 1 µg/mL | > 64 µg/mL | 1 µg/mL | > 64 µg/mL | 2 µg/mL | 2 µg/mL | 64 µg/mL | 2 µg/mL | 2 µg/mL | 0.5 µg/mL

— article PMC10041525, “New Dual Inhibitors of Bacterial Topoisomerases with Broad-Spectrum Antibacterial Activity and In Vivo Efficacy against Vancomycin-Intermediate Staphylococcus aureus” (Journal of Medicinal Chemistry, 2023)
